Measured values published in US20210214303A1, “SCORPION VENOM BENZOQUINONE DERIVATIVES AND USES THEREOF” (priority 2018, published 2021).
≈ marks a conversion by molar mass, not a printed value. Entries after “also recorded” stand apart in the source; their conditions may differ.

Tests used:
Staphylococcus aureus [1] = assay: disk-diffusion assay; assay type: cell-based
Procedure: Ampicillin (5 μg) was used as a positive control.
(§1) This difference was confirmed using a broth microdilution assay (FIG. 3D). The minimum inhibitory concentration (MIC) for S. aureus growth was 4 μg/mL for the red 1,4 benzoquinone and 6 μg/mL for the blue 1,4 benzoquinone (FIG. 3D, Table 1). Ampicillin (MIC=0.5 μg/mL) was used as a positive control (ESCMID Eo (2003) Clin. Microbiol. Infect. 9: ix-xv; Pieterse et al., (2010) Brazil. J. Microbiol. 41: 133-145). These compounds were bactericidal at their MICs, killing 90% of S. aureus in 6 h and 99.9% in 24 h (Table 2).

Staphylococcus aureus [2] = assay: broth microdilution assay (MIC); assay type: cell-based; settings: S. aureus, read-out: minimum inhibitory concentration (MIC)
Procedure: FIG. 3D illustrates the determination of the minimal inhibitory concentrations (MICs) of the red and blue 1,4 benzoquinones against Staphylococcus aureus. The MICs determined by the broth microdilution assay are 4 μg/mL for the red 1,4 benzoquinone and 6 μg/mL for the blue 1,4 benzoquinone. Ampicillin was used as a positive control. Each result is reported as the mean±SD.
as §1

[3] = system: Staphylococcus aureus ATCC 29213; assay: Minimum inhibitory concentration, Table 1, strain ATCC 29213; assay type: cell-based; settings: for sensitive/resistant (growth): ATCC 29213; for MIC: ATCC29213, Staphylococcus aureus ATCC 29213; for sensitive/resistant (growth): key: S Sensitive (did not grow the crop); R resistant (bacterial growth)
Staphylococcus aureus [4] = assay: Time-kill assay; assay type: cell-based; settings: for killing of S. aureus: at their MICs
E. coli = assay: activity against gram negative E. coli; assay type: cell-based
Candida. albicans = assay: activity against pathogenic fungus; assay type: cell-based
[5] = system: A549 (adenocarcinomic lung epithelial cells); assay: cytotoxicity assay, LDH release; assay type: cell-based, human; settings: 1, 5, and 25 μM, 12 hours
Procedure: (§2) Cytotoxicity to PBMCs and to Neoplastic Cells: The cytotoxicity of the 1,4 benzoquinones of the disclosure was tested with peripheral blood mononuclear cells (PBMCs) and various human neoplastic cell lines: A549 (adenocarcinomic lung epithelial cells), Jurkat (T cell leukemia), TE 671 (rhabdomyosarcoma cells) and SH-SY5Y (bone marrow neuroblastoma cells).
(§3) PBMCs were obtained from healthy blood donors and isolated by Ficoll-Paque PLUS density gradient centrifugation and resuspended in RPMI-1640 medium supplemented with 10% fetal calf serum. Cells were incubated at 37° C. in 5% CO2 overnight and non-adherent cells were recovered and used for subsequent experiments. The neoplastic cell lines were cultured according to the ATCC guidelines.
(§4) For cytotoxicity assays, cells were resuspended in DMEM without phenol red, supplemented with 2% heat-inactivated fetal calf serum. Cells were plated in 96-well polystyrene cell culture plates (2×10^4 to 2×10^5 cells/well depending on the cell type) and incubated at 37° C. in 5% CO2 for 8 hours to promote cell adhesion to the well's surface. The red and blue 1,4 benzoquinones were administered to achieve final concentrations of 1, 5, and 25 μM. Cells were then incubated at 37° C. in 5% CO2 for 12 hours. Following the incubation period, plates were centrifuged at 300×g for 10 minutes and supernatants were harvested to evaluate cell viability with the CytoTox 96@ Non-Radioactive Cytotoxicity Assay (Promega). This assay quantitatively measures lactate dehydrogenase (LDH), a stable cytosolic enzyme that is released upon cell lysis. The released LDH in the culture supernatants was measured with a colorimetric coupled enzymatic assay according to the manufacturer's instructions.

Jurkat (T cell leukemia) = assay: cytotoxicity assay, LDH release; assay type: cell-based, human; settings: 1, 5, and 25 μM, 12 hours
Procedure: as §2, §3, §4

[6] = system: SH-SY5Y (bone marrow neuroblastoma cells); assay: cytotoxicity assay, LDH release; assay type: cell-based, human; settings: 1, 5, and 25 μM, 12 hours
Procedure: as §2, §3, §4

[7] = system: TE 671 (rhabdomyosarcoma cells); assay: cytotoxicity assay, LDH release; assay type: cell-based, human; settings: 1, 5, and 25 μM, 12 hours
Procedure: as §2, §3, §4

[8] = system: peripheral blood mononuclear cells (PBMCs); assay: cytotoxicity assay, LDH release; assay type: cell-based, human; settings: 25 μM, 12 hours
Procedure: FIG. 14B illustrates a cytotoxic effect of the 1,4 benzoquinones of the disclosure on peripheral blood mononuclear cells (PBMCs). PBMCs were incubated with the red and blue 1,4 benzoquinones at a concentration of 25 μM for 12 hours, and cell death was evaluated by the release of the stable cytosolic enzyme lactate dehydrogenase. […] Each result is reported as the mean±SD.
as §2, §3, §4

fresh human erythrocytes = assay: Hemolysis assay; assay type: cell-based; settings: 2 hours, all concentrations tested (even higher than 100 μg/mL)
Procedure: FIG. 14A illustrates a cytotoxic activity assay of the red and blue 1,4 benzoquinones. Hemolysis was evaluated using fresh human erythrocytes. Lysis was evaluated by the absorbance of the supernatant at 415 nm after 2 hours of incubation with different concentrations of the 1,4 benzoquinones. Triton X-100 was used as positive control.
Hemolysis assay: The hemolytic activity was evaluated for both of the 1,4 benzoquinones using fresh human erythrocytes. Fresh human erythrocytes were washed four times with phosphate buffered saline (PBS) and incubated for 2 h at 37° C. with different concentration of the 1,4 benzoquinones. A gradient of Triton X-100 was used as positive control of hemolysis. After incubation, the erythrocytes suspension was centrifuged at 400×g for 10 min and supernatant was recovered. Hemolysis was determined by the absorbance of the supernatant at 415 nm.

TE671 muscle cells = assay: detection of intracellular reactive oxygen species with DCFH-DA; assay type: cell-based; settings: 25 μM, 6 hours
Procedure: FIG. 16A illustrates the detection of intracellular reactive oxygen species (ROS) using the oxidant-sensing probe dichloro-dihydro-fluorescein diacetate (DCFH-DA). TE671 muscle cells were used. Cells were cultured according to the ATCC guidelines. Before treatment, cells were incubated for one hour with a 10 μM solution of DCFH-DA. After the cells were washed 3×PBS, either the red or blue 1,4 benzoquinone was administered at a concentration of 25 μM. Cells were then incubated at 37° C. in 5% CO2 for 6 hours. Following the incubation period, cells were harvested and evaluated with a Zeiss Axioskop fluorescence microscope using a 485-nm excitation and 530-nm emission filter combination. […] Treatment with hydrogen peroxide (50 μM) was used as positive control.

SMILES	inhibition of S. aureus growth (Staphylococcus aureus [1])	MIC (Staphylococcus aureus [2])	sensitive/resistant (growth) ([3]; 0.5 μg/ml)	sensitive/resistant (growth) ([3]; 1 μg/ml)	sensitive/resistant (growth) ([3]; 2 μg/ml)	sensitive/resistant (growth) ([3]; 4 μg/ml)	sensitive/resistant (growth) ([3]; 8 μg/ml)	sensitive/resistant (growth) ([3]; 16 μg/ml)	sensitive/resistant (growth) ([3]; 32 μg/ml)	sensitive/resistant (growth) ([3]; 64 μg/ml)	MIC [3]	Colony-forming Units (CFU) (Staphylococcus aureus [4]; 0 hr incubation, 2 × MIC)	Colony-forming Units (CFU) (Staphylococcus aureus [4]; 0 hr incubation, MIC)	Colony-forming Units (CFU) (Staphylococcus aureus [4]; 6 hr incubation, 2 × MIC)	Colony-forming Units (CFU) (Staphylococcus aureus [4]; 6 hr incubation, MIC)	Colony-forming Units (CFU) (Staphylococcus aureus [4]; 12 hr incubation, 2 × MIC)	Colony-forming Units (CFU) (Staphylococcus aureus [4]; 12 hr incubation, MIC)	Colony-forming Units (CFU) (Staphylococcus aureus [4]; 24 hr incubation, 2 × MIC)	Colony-forming Units (CFU) (Staphylococcus aureus [4]; 24 hr incubation, MIC)	killing of S. aureus (Staphylococcus aureus [4]; in 6 h)	also measured
COC1=CC(=O)C(SC)=C(SC)C1=O [blue 1,4 benzoquinone, 5-methoxy-2,3-bis(methylthio)cyclohexa-2,5-diene-1,4-dione]	clear inhibition; also recorded: inhibitory activity	6 µg/mL (≈ 26.1 µM)	R	S	S	S	S	S	S	S	1 µg/mL (≈ 4.34 µM)	339 Colony-forming units per plate	352 Colony-forming units per plate	21 Colony-forming units per plate	45 Colony-forming units per plate	2 Colony-forming units per plate	1 Colony-forming units per plate	0 Colony-forming units per plate	2 Colony-forming units per plate	90%	killing of S. aureus (Staphylococcus aureus [4]; in 24 h): 99.9%; activity against gram negative E. coli (E. coli): neither compound was found to have appreciable activity; also recorded: Neither 1,4 benzoquinone showed activity; activity against the pathogenic fungus Candida. albicans (Candida. albicans): Neither 1,4 benzoquinone showed activity; cytotoxic effect on A549 cells (LDH release) [5]: remained relatively unaffected; cytotoxic effect on Jurkat cells (LDH release) (Jurkat (T cell leukemia)): comparably potent in inducing death; cytotoxic effect on SH-SY5Y cells (LDH release) [6]: comparably potent in inducing death; cytotoxic effect on TE 671 cells (LDH release) [7]: comparably potent in inducing death; PBMCs killed [8]: 50%; cytotoxic effect on PBMCs (LDH release) [8]: cytotoxic against PBMCs; hemolytic activity (fresh human erythrocytes): no erythrocyte hemolysis was observed; also recorded: Neither 1,4 benzoquinone showed hemolytic activity; intracellular reactive oxygen species (oxidation of DCFH-DA) (TE671 muscle cells): Intracellular oxidation of the DCFH-DA in cells treated with the 1,4 benzoquinones was observed
COC1=CC(=O)C(SC)=C(OC)C1=O [red 1,4 benzoquinone, 3,5-dimethoxy-2-(methylthio)cyclohexa-2,5-diene-1,4-dione]	clear inhibition; also recorded: inhibitory activity	4 µg/mL (≈ 18.7 µM)	R	S	S	S	S	S	S	S	1 µg/mL (≈ 4.67 µM)	311 Colony-forming units per plate	298 Colony-forming units per plate	9 Colony-forming units per plate	22 Colony-forming units per plate	0 Colony-forming units per plate	3 Colony-forming units per plate	0 Colony-forming units per plate	0 Colony-forming units per plate	90%	killing of S. aureus (Staphylococcus aureus [4]; in 24 h): 99.9%; activity against gram negative E. coli (E. coli): neither compound was found to have appreciable activity; also recorded: Neither 1,4 benzoquinone showed activity; activity against the pathogenic fungus Candida. albicans (Candida. albicans): Neither 1,4 benzoquinone showed activity; cytotoxic effect on A549 cells (LDH release) [5]: remained relatively unaffected; cytotoxic effect on Jurkat cells (LDH release) (Jurkat (T cell leukemia)): comparably potent in inducing death; cytotoxic effect on SH-SY5Y cells (LDH release) [6]: comparably potent in inducing death; cytotoxic effect on TE 671 cells (LDH release) [7]: comparably potent in inducing death; PBMCs killed [8]: 60%; cytotoxic effect on PBMCs (LDH release) [8]: cytotoxic against PBMCs; hemolytic activity (fresh human erythrocytes): no erythrocyte hemolysis was observed; also recorded: Neither 1,4 benzoquinone showed hemolytic activity; intracellular reactive oxygen species (oxidation of DCFH-DA) (TE671 muscle cells): Intracellular oxidation of the DCFH-DA in cells treated with the 1,4 benzoquinones was observed
